Reference: patent publication US20240207202A1, “COMBINATION THERAPIES TARGETING MITOCHONDRIAL BIOGENESIS FOR CANCER THERAPY” (The Wistar Institute of Anatomy and Biology, priority 2015, published 2024)
Like-named read-outs stand apart in the source and are kept apart here.

Columns and labels:
[1] = system: CCLE melanoma cell lines with BRAFV600 mutations; details: MitoB high vs low subgroups, two sample t-test; cited from earlier work
[2] = system: BRAF(V600E), BRAF(wild type), c-RAF, VEGFR2, PDGFR, CSF1R, RET, c-KIT, SRC, STE20; details: range over several intracellular kinases; cited from earlier work
[3] = system: BRAFV600E, VEGFR2, PDGFRB, c-KIT; details: cited from earlier work
WM9 melanoma cells = assay: Induction of apoptosis and cell death by PSVue 643 staining in WM9 melanoma cells; type: cell-based, human; details: WM9, 72 h
Method: Adherent melanoma cells were harvested with 0.05% Trypsin-EDTA and were washed once with 1×DPBS. Cells were labeled with CellTrace™ Violet according to the manufacturer's protocol and were allowed to adhere to tissue culture plates overnight following the drug treatment. […] Cells were then immediately subjected to FACS analysis using a BD LSR II flow cytometer and at least 5,000 cells per sample were acquired.
Cell suspensions were kept in the dark at room temperature for 5 min. 0.2 ml 1×PBS supplemented with 10% FBS was added to each cell suspension and cells were immediately analyzed by BD LSRII.
Briefly, autophagic flux was assessed by FACS analysis of WM9 cells expressing the mCherry-eGFPLC3B construct that were transfected with the indicated siRNAs targeting autophagy and ER stress response and treated for 72 h with DMSO or the combination of PLX4720 at 10 μM and PD0325901 at 1 μM. The data represent the average of 2 biological replicates. […] Autophagic flux was assessed by FACS analysis of WM9 cells expressing the mCherry-eGFPLC3B construct treated for 72 h with Gamitrinib at 1 μM or Spautin-1 at 10 μM in combination with PLX4720 at 10 μM/PD0325901 at 1 μM. Cells treated with DMSO were used as the control for setting up the gate.

autophagic flux = assay: Autophagic flux in WM9 cells expressing mCherry-eGFP-LC3B; type: cell-based, human; details: WM9, 72 h, Gamitrinib 1 μM or Spautin-1 10 μM combined with PLX4720 10 μM/PD0325901 1 μM
Method: WM9 cells stably expressing pLVO-Puro-mCherry-eGFP-LC3 were analyzed with a BD LSR II flow cytometer. Fluorescence of mCherry and eGFP was recorded to derive the ratio of mCherryheight over eGFP-height. This ratio indicates the autophagic flux.
Briefly, autophagic flux was assessed by FACS analysis of WM9 cells expressing the mCherry-eGFPLC3B construct that were transfected with the indicated siRNAs targeting autophagy and ER stress response and treated for 72 h with DMSO or the combination of PLX4720 at 10 μM and PD0325901 at 1 μM. The data represent the average of 2 biological replicates. Induction of apoptosis and cell death was assessed by PSVue 643 staining in WM9 cells expressing the mCherry-eGFP-LC3B construct transfected with the indicated siRNAs targeting autophagy and ER stress response and treated for 72 h with DMSO or the combination of PLX4720 at 10 μM and PD0325901 at 1 μM. Autophagic flux was assessed by FACS analysis of WM9 cells expressing the mCherry-eGFPLC3B construct treated for 72 h with Gamitrinib at 1 μM or Spautin-1 at 10 μM in combination with PLX4720 at 10 μM/PD0325901 at 1 μM. Cells treated with DMSO were used as the control for setting up the gate. Induction of apoptosis and cell death was assessed by PSVue 643 staining in WM9 cells treated for 72 h with Gamitrinib at 1 μM or Spautin-1 at 10 μM in combination with PLX4720 at 10 μM/PD0325901 at 1 μM. […]

MitoBiogenesis [4] = details: Malme-3M and COLO829, 8 h; public gene expression microarray data; cited from earlier work
[5] = system: 1205Lu melanoma xenograft; assay: Tumor volume of 1205Lu melanoma xenografts; type: in vivo, mice; details: 1205Lu xenografts
MitoBiogenesis [6] = assay: Expression of 18 MitoBiogenesis genes in melanoma cells (microarray, qRT-PCR, immunoblot); type: cell-based, human; details: for expression of MitoBiogenesis: qRT-PCR, 72 h
Method: One μg total mRNA was reverse transcribed using a Maxima First Strand cDNA Synthesis Kit for qRT-PCR (Thermo Fisher). Fast SYBR® Green Master Mix (Life Technologies) was used with cDNA template and primers to evaluate the expression of target genes and GAPDH. Primers used were purchased from Integrated DNA Technologies. Amplifications were performed using an Applied Biosystems® 7500 Real-Time PCR System (Life Technologies). All experiments were performed in triplicate. Expression ratios of controls were normalized to 1. Please see Extended Experimental Procedures for the list of PCR primer sequences. Access of Gene Expression Microarray Data and TCGA Melanoma Patients' RNA-seq Data Time-course Illumina gene expression microarray data of WM9 melanoma cells were deposited at the NCBI Gene Expression Omnibus (GEO) (ncbi.nlm.nih.gov/geo/) under the accession number GSE58721. Normalized CCLE gene expression microarray data were directly downloaded from Broad CCLE (broadinstitute.org/ccle). Gene expression microarray data of A375 and SK-MEL-28 melanoma cells were downloaded from GEO under accession numbers GSE42872 and GSE37441, respectively. Gene expression microarray data of Malme-3M and COLO829 melanoma cells were downloaded from GEO under the accession number GSE51113. Normalized RNA-seq data of TCGA melanoma patients were downloaded from TCGA Data Portal (https://tcga-data.nci.nih.gov/tcga/). Cells were washed with ice-cold PBS containing 100 μM Na3VO4 and scraped off culture dishes. After centrifugation, cell pellets were lysed in buffer containing 10 mM Tris-HCl, pH 7.8, 150 mM NaCl, 1 mM EDTA, 1% Nonidet P-40, 1 mM Na3VO4 and protease inhibitors (Roche complete protease inhibitor tablets). Lysates were cleared by micro-centrifugation and protein concentrations were determined with Protein Assay Dye Reagent Concentrate (Bio-Rad). For western blots, 25 μg of each lysate were run on 15-well 10% or 12% SDS-PAGE gels and transferred onto nitrocellulose membranes using a dye fast Trans-BlotR Turbo™ transfer system (Bio-Rad). […]

[7] = system: mitochondrial respiratory chain complex subunits; assay: Expression of mitochondrial respiratory chain complex subunits in WM9 cells (qRT-PCR, RPPA, immunoblot); type: cell-based, human; details: qRT-PCR
Method: One μg total mRNA was reverse transcribed using a Maxima First Strand cDNA Synthesis Kit for qRT-PCR (Thermo Fisher). Fast SYBR® Green Master Mix (Life Technologies) was used with cDNA template and primers to evaluate the expression of target genes and GAPDH. Primers used were purchased from Integrated DNA Technologies. Amplifications were performed using an Applied Biosystems® 7500 Real-Time PCR System (Life Technologies). All experiments were performed in triplicate. Expression ratios of controls were normalized to 1. Please see Extended Experimental Procedures for the list of PCR primer sequences. The raw data of gene expression microarrays generated from Illumina Chips were normalized, background-corrected and summarized using the R package “lumi” (Du et al., 2008). […] To reduce false positives, the unexpressed probes were removed. The R package “limma” (Smyth, 2004, 2005) was employed for gene differential expression analysis, followed by multiple test correction by the Benjamini and Hochberg procedure (Benjamini and Hochberg, 1995). […] We also conducted GSEA as previously reported (Subramanian et al., 2005). For GSEA, we analyzed gene sets obtained from the Molecular Signatures Database (broadinstitute.org/gsea/msigdb/). The same differential expression analysis method was applied to RPPA data. Cells were washed with ice-cold PBS containing 100 μM Na3VO4 and scraped off culture dishes. After centrifugation, cell pellets were lysed in buffer containing 10 mM Tris-HCl, pH 7.8, 150 mM NaCl, 1 mM EDTA, 1% Nonidet P-40, 1 mM Na3VO4 and protease inhibitors (Roche complete protease inhibitor tablets). Lysates were cleared by micro-centrifugation and protein concentrations were determined with Protein Assay Dye Reagent Concentrate (Bio-Rad). For western blots, 25 μg of each lysate were run on 15-well 10% or 12% SDS-PAGE gels and transferred onto nitrocellulose membranes using a dye fast Trans-BlotR Turbo™ transfer system (Bio-Rad). Blots were blocked in SEA BLOCK Blocking Buffer (Thermo Scientific) diluted with 1×TBS at 1:1 ratio at room temperature for 1 h, incubated overnight with primary antibody at 4° C., stained with secondary antibodies conjugated to IRDye® Infrared Dyes (LI-COR Biosciences) and then visualized using an Odyssey flatbed scanner (LI-COR Biosciences).

[8] = Table 6, mice treated 15 days, PLX4720 200 mg/kg diet, 2,4-DNP 20 mg/kg QD p.o., alone or combined

For `Cn1c(Nc2ccc(C(F)(F)F)cc2)nc2cc(Oc3ccnc(-c4ncc(C(F)(F)F)[nH]4)c3)ccc21` [RAF265], the “drug IC50 of cell lines with higher basal level of MitoBiogenesis versus lower” value (“drug IC50 … of MitoBiogenesis versus lower” for short) [1] is given as “significantly lower drug IC50”, the IC50 [2] is given as […] and the “potency in cell-based assays” value ([3]; BRAFV600E and VEGFR2) is given as “most potent”. The “potency in cell-based assays” value ([3]; PDGFRB and c-KIT) was “less active”.
In the case of `Fc1ccc(CNc2ncnc3ccc(F)cc23)cc1` [Spautin-1, reference compound], the “induction of apoptosis and cell death” value (WM9 melanoma cells; Spautin-1 10 μM combined with PLX4720 10 μM/PD0325901 1 μM) is reported as “not able to trigger a significant induction of apoptosis and cell death” and the autophagic flux (autophagic flux) is reported as “effectively decreased the autophagic flux”.
For `O=C(NOC[C@H](O)CO)c1ccc(F)c(F)c1Nc1ccc(I)cc1F` [PD0325901], the “drug IC50 … of MitoBiogenesis versus lower” value [1] is listed as “significantly lower drug IC50” and the “expression of MitoBiogenesis” value (MitoBiogenesis [4]) is listed as “inhibited”.
For `CC(=O)N[C@@H](CS)C(=O)O` [NAC, N-acetyl-L-cysteine], the “apoptosis and cell death induced by the combination of Gamitrinib and MAPK pathway inhibitors” value (WM9 melanoma cells; NAC 5 mM) was “markedly suppress apoptosis and cell death”.
For `N=C(N)NC(=N)NCCc1ccccc1` [Phenformin, 1-phenethylbiguanide], the “apoptosis and cell death, compared with other inhibitors of the drug screen” value (WM9 melanoma cells; titrated doses combined with MAPK pathway inhibitors (PLX4720 10 μM, PD0325901 1 μM)) was “greater increase in apoptosis and cell death”.
With `CCCS(=O)(=O)Nc1ccc(F)c(C(=O)c2c[nH]c3ncc(Cl)cc23)c1F` [PLX4720] the “% T/C (percentages of tumor volumes)” value [5, 8] was 51.41%, the “% T/C (percentages of tumor volumes)” value ([5]; Table 7, 17 days, PLX4720 200 mg/kg diet) was 56.88% and the “expression of MitoBiogenesis” value (MitoBiogenesis [6]; A375 cells) was “decreased the expression of MitoBiogenesis”. For the same compound, the “expression of MitoBiogenesis (protein)” value (MitoBiogenesis [6]; WM9 cells, PLX4720 10 μM, 72 h time course, immunoblotting) was “up-regulated in a time-dependent manner”, the “expression of MitoBiogenesis” value (MitoBiogenesis [6]; WM793 or WM9 cells) was “up-regulated MitoBiogenesis” and the “expression of 30 mitochondria respiratory chain complex subunits” value ([7]; WM9, 72 h) was “substantially up-regulated”. For the same compound, the “expression of 5 representative mitochondrial respiratory chain complex subunits” value ([7]; WM9, PLX4720 10 μM up to 120 h) was “up-regulated” and the “drug IC50 … of MitoBiogenesis versus lower” value [1] was “significantly lower drug IC50”.
In the case of `O=[N+]([O-])c1ccc(O)c([N+](=O)[O-])c1` [2,4-DNP, 2,4-dinitrophenol], the tumor growth ([5]; 2,4-DNP alone or with PLX4720, combination compared to PLX4720 alone) is reported as “failed to inhibit tumor growth” and the “% T/C (percentages of tumor volumes)” value [5, 8] is reported as 101.96%.
